The record followed here is BindingDB's records for doi:10.1016/j.bmcl.2004.12.068 (Pharmacor, 2005).

Counter-ions that a name gives are not always drawn.

The target of one test is T1, Dimer of Gag-Pol polyprotein [501-599] (Human immunodeficiency virus 1, UniProt P03367).
T1 construct: 501-599
In words: Protease Inhibition Assay.
Settings: not given
As for the experimental part:
HIV-1 protease activity was measured by a continuous fluorometric assay using the internally quenched fluorogenic substrate DABCYL-Ser-Gln-Asn-Tyr-Pro-Ile-Val-Gln-EDANS. The proteolytic activity can be monitored by the increase in fluorescence intensity, and the protease products were analyzed by HPLC.
Turning to `Cc1ccc(S(=O)(=O)N(CC(C)C)[C@@H](CCCCNC(=O)OCC2c3ccccc3-c3ccccc32)C(=O)NN)cc1` [9H-fluoren-9-ylmethyl N-[(5S)-5-(hydrazinecarbonyl)-5-[(4-methylbenzene)(2-methylpropyl)sulfonamido]pentyl]carbamate], the affinity corresponds to a Ki of 254 nM.
Turning to `Cc1ccc(S(=O)(=O)N(CC(C)C)[C@@H](CCCCNC(=O)OCC2c3ccccc3-c3ccccc32)C(=O)NO)cc1` [9H-fluoren-9-ylmethyl N-[(5S)-5-(hydroxycarbamoyl)-5-[(4-methylbenzene)(2-methylpropyl)sulfonamido]pentyl]carbamate], the Ki (in general, a measure of affinity in units of concentration, obtained from inhibition or displacement) amounted to 245 nM.
For the compound `Cc1ccc(S(=O)(=O)N(CC(C)C)[C@@H](CCCCNC(=O)OCC2c3ccccc3-c3ccccc32)c2nnn[nH]2)cc1` [9H-fluoren-9-ylmethyl N-[(5S)-5-[(4-methylbenzene)(2-methylpropyl)sulfonamido]-5-(1H-1,2,3,4-tetrazol-5-yl)pentyl]carbamate], the Ki was above 300 nM.
For the compound `Cc1ccc(S(=O)(=O)N(CC(C)C)[C@H](C=O)CCCCNC(=O)OCC2c3ccccc3-c3ccccc32)cc1` [9H-fluoren-9-ylmethyl N-[(5S)-5-[(4-methylbenzene)(2-methylpropyl)sulfonamido]-6-oxohexyl]carbamate], the Ki was above 300 nM.
In the case of `Cc1ccc(S(=O)(=O)N(CC(C)C)[C@@H](CCCCNC(=O)OCC2c3ccccc3-c3ccccc32)C(=N)N)cc1` [9H-fluoren-9-ylmethyl N-[(5S)-5-carbamimidoyl-5-[(4-methylbenzene)(2-methylpropyl)sulfonamido]pentyl]carbamate], the affinity, expressed as Ki, was 280 nM.
On the same count and under the same terms, to `Cc1ccc(S(=O)(=O)N(CC(C)C)[C@@H](CCCCNC(=O)OCC2c3ccccc3-c3ccccc32)C(N)=S)cc1` [9H-fluoren-9-ylmethyl N-[(5S)-5-carbamothioyl-5-[(4-methylbenzene)(2-methylpropyl)sulfonamido]pentyl]carbamate] belongs 127 nM; to `Cc1ccc(S(=O)(=O)N(CC(C)C)[C@@H](CCCCNC(=O)OCC2c3ccccc3-c3ccccc32)C(N)=O)cc1` [9H-fluoren-9-ylmethyl N-[(5S)-5-carbamoyl-5-[(4-methylbenzene)(2-methylpropyl)sulfonamido]pentyl]carbamate], 107 nM.
For the compound `Cc1ccc(S(=O)(=O)N(CC(C)C)[C@H](CN)CCCCNC(=O)OCC2c3ccccc3-c3ccccc32)cc1` [9H-fluoren-9-ylmethyl N-[(5S)-6-amino-5-[(4-methylbenzene)(2-methylpropyl)sulfonamido]hexyl]carbamate hydrochloride], the Ki was above 300 nM.
In the case of `Cc1ccc(S(=O)(=O)N(CC(C)C)[C@H](CO)CCCCNC(=O)OCC2c3ccccc3-c3ccccc32)cc1` [9H-fluoren-9-ylmethyl N-[(5S)-6-hydroxy-5-[(4-methylbenzene)(2-methylpropyl)sulfonamido]hexyl]carbamate], the Ki turned out to be 105 nM.
On to `Cc1ccc(S(=O)(=O)N(CC(C)C)[C@@H](CNC(=O)OCC2c3ccccc3-c3ccccc32)C(=O)O)cc1` [(2S)-3-{[(9H-fluoren-9-ylmethoxy)carbonyl]amino}-2-[(4-methylbenzene)(2-methylpropyl)sulfonamido]propanoic acid], for which the Ki is above 250 nM.
For `Cc1ccc(S(=O)(=O)N(CC(C)C)[C@@H](CCNC(=O)OCC2c3ccccc3-c3ccccc32)C(=O)O)cc1` [(2S)-4-{[(9H-fluoren-9-ylmethoxy)carbonyl]amino}-2-[(4-methylbenzene)(2-methylpropyl)sulfonamido]butanoic acid], the Ki is above 250 nM.
Still for that read-out and setting: to `Cc1ccc(S(=O)(=O)N(CC(C)C)[C@@H](CCCCNC(=O)C2c3ccccc3-c3ccccc32)C(=O)O)cc1` [(2S)-6-(9H-fluoren-9-ylformamido)-2-[(4-methylbenzene)(2-methylpropyl)sulfonamido]hexanoic acid] belongs 105 nM; to `CC(C)CN(C(=O)c1ccccc1)[C@@H](CCCCNC(=O)OCC1c2ccccc2-c2ccccc21)C(=O)O` [(2S)-6-{[(9H-fluoren-9-ylmethoxy)carbonyl]amino}-2-[N-(2-methylpropyl)phenylformamido]hexanoic acid], above 300 nM; to `Cc1ccc(S(=O)(=O)N(CC(C)C)[C@@H](CCCCNC(=O)OC(C)(C)C)C(=O)O)cc1` [(2S)-6-{[(tert-butoxy)carbonyl]amino}-2-[(4-methylbenzene)(2-methylpropyl)sulfonamido]hexanoic acid], above 250 nM.
On to `Cc1ccc(S(=O)(=O)N(CC(C)C)[C@@H](CCCCCNC(=O)OCC2c3ccccc3-c3ccccc32)C(=O)O)cc1` [(2S)-7-{[(9H-fluoren-9-ylmethoxy)carbonyl]amino}-2-[(4-methylbenzene)(2-methylpropyl)sulfonamido]heptanoic acid], for which the Ki is above 250 nM.
On to `COC(=O)[C@H](CCCCNC(=O)OCC1c2ccccc2-c2ccccc21)N(CC(C)C)S(=O)(=O)c1ccc(C)cc1` [methyl (2S)-6-{[(9H-fluoren-9-ylmethoxy)carbonyl]amino}-2-[(4-methylbenzene)(2-methylpropyl)sulfonamido]hexanoate], for which the Ki was above 300 nM.

Staying with this test, now noted: pH 4.7; 30 °C.
In turn, `Cc1ccc(S(=O)(=O)NCCC[C@H](NC(=O)OCC2c3ccccc3-c3ccccc32)C(=O)O)cc1` [(2S)-2-{[(9H-fluoren-9-ylmethoxy)carbonyl]amino}-5-[(4-methylbenzene)sulfonamido]pentanoic acid] displayed a Ki of 26200 nM.
In turn, `Cc1ccc(S(=O)(=O)N(CCCC[C@H](NC(=O)OCC2c3ccccc3-c3ccccc32)C(=O)O)CC(C)C)cc1` [(2S)-2-{[(9H-fluoren-9-ylmethoxy)carbonyl]amino}-6-[(4-methylbenzene)(2-methylpropyl)sulfonamido]hexanoic acid] returned a Ki of 2000 nM.
`CC(C)(C)OC(=O)NCCCC[C@H](NC(=O)OCc1ccccc1)C(=O)O` [(2S)-2-{[(benzyloxy)carbonyl]amino}-6-{[(tert-butoxy)carbonyl]amino}hexanoic acid] returned a Ki above 100000 nM.
Compound `Cc1ccc(S(=O)(=O)N(CC(C)C)[C@@H](CCCCNC(=O)OCC2c3ccccc3-c3ccccc32)C(=O)O)cc1` [(2S)-6-{[(9H-fluoren-9-ylmethoxy)carbonyl]amino}-2-[(4-methylbenzene)(2-methylpropyl)sulfonamido]hexanoic acid] had a Ki of 5 nM.
`Cc1ccc(S(=O)(=O)N[C@@H](CCCCNC(=O)OC(C)(C)C)C(=O)O)cc1` [(2S)-6-{[(tert-butoxy)carbonyl]amino}-2-[(4-methylbenzene)sulfonamido]hexanoic acid] returned a Ki above 100000 nM.
